Test results: ChEMBL document CHEMBL1201862, “PubChem BioAssay data set” (2004)
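Five compound concentrations were applied to cells in 96-well plates for 48 hours; endpoints were derived by simple linear interpolation of the resulting dose-response curve. Abbreviation: GI50, concentration required for 50% inhibition of growth.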 Calls of active or inactive are those of the source. Cut-off read from the data, not from the text of the source: active = GI50 up to about 1.1 µM and inactive = higher.

Tests used:
Experiment in all cases: growth of human tumour cells (NCI), 48 h
MDA-MB-435 = test system: MDA-MB-435
CCRF-CEM = test system: CCRF-CEM
PC-3 = test system: PC-3
U-251 = test system: U-251
LOX IMVI = test system: LOX IMVI
HOP-62 = test system: HOP-62
K562 = test system: K562
A498 = test system: A498
MOLT-4 = test system: MOLT-4
RXF 393 = test system: RXF 393
786-0 = test system: 786-0
SNB-75 = test system: SNB-75
A549 = test system: A549
RPMI-8226 = test system: RPMI-8226
IGROV-1 = test system: IGROV-1
SW-620 = test system: SW-620
COLO 205 = test system: COLO 205
MDA-MB-231 = test system: MDA-MB-231
SR = test system: SR
SF-539 = test system: SF-539
MCF7 = test system: MCF7
TK-10 = test system: TK-10
MDA-N = test system: MDA-N
NCI/ADR-RES = test system: NCI/ADR-RES
M14 = test system: M14
NCI-H522 = test system: NCI-H522
HL-60 = test system: HL-60
SF-295 = test system: SF-295
KM12 = test system: KM12
UACC-257 = test system: UACC-257
HCT-116 = test system: HCT-116
SK-MEL-5 = test system: SK-MEL-5
OVCAR-4 = test system: OVCAR-4
HCT-15 = test system: HCT-15
NCI-H460 = test system: NCI-H460
SK-MEL-28 = test system: SK-MEL-28
BT-549 = test system: BT-549
ACHN = test system: ACHN
SF-268 = test system: SF-268
T47D = test system: T47D
UACC-62 = test system: UACC-62
NCI-H226 = test system: NCI-H226
SK-OV-3 = test system: SK-OV-3
NCI-H23 = test system: NCI-H23
EKVX = test system: EKVX
OVCAR-5 = test system: OVCAR-5
SNB-19 = test system: SNB-19
SK-MEL-2 = test system: SK-MEL-2
Hs-578T = test system: Hs-578T
Malme-3M = test system: Malme-3M
HT-29 = test system: HT-29
UO-31 = test system: UO-31
HOP-92 = test system: HOP-92
CAKI-1 = test system: CAKI-1
DU-145 = test system: DU-145
SN12C = test system: SN12C
OVCAR-3 = test system: OVCAR-3
OVCAR-8 = test system: OVCAR-8

For `O=[N+]([O-])c1ccc(CSCc2ccc(Cl)cc2)cc1`, the GI50 (MDA-MB-435) was > 100 µM (inactive), the GI50 (CCRF-CEM) was 14.5 µM (inactive) and the GI50 (PC-3) was > 100 µM (inactive). The GI50 (U-251) was > 100 µM (inactive), the GI50 (LOX IMVI) was > 100 µM (inactive) and the GI50 (HOP-62) was > 100 µM (inactive). For the same molecule, the GI50 (K562) was > 100 µM (inactive), the GI50 (A498) was > 100 µM (inactive) and the GI50 (MOLT-4) was 17.5 µM (inactive). The GI50 (RXF 393) was > 100 µM (inactive), the GI50 (786-0) was > 100 µM (inactive) and the GI50 (SNB-75) was > 100 µM (inactive). The GI50 (A549) was > 100 µM (inactive), the GI50 (RPMI-8226) was 55.7 µM (inactive) and the GI50 (IGROV-1) was > 100 µM (inactive). For the same molecule, the GI50 (SW-620) was > 100 µM (inactive), the GI50 (COLO 205) was > 100 µM (inactive) and the GI50 (MDA-MB-231) was > 100 µM (inactive). For the same molecule, the GI50 (SR) was 23.8 µM (inactive), the GI50 (SF-539) was > 100 µM (inactive) and the GI50 (MCF7) was > 100 µM (inactive). For the same molecule, the GI50 (TK-10) was > 100 µM (inactive), the GI50 (MDA-N) was > 100 µM (inactive) and the GI50 (NCI/ADR-RES) was > 100 µM (inactive). For the same molecule, the GI50 (M14) was > 100 µM (inactive), the GI50 (NCI-H522) was 20 µM (inactive) and the GI50 (HL-60) was 33.1 µM (inactive). For the same molecule, the GI50 (SF-295) was > 100 µM (inactive), the GI50 (KM12) was > 100 µM (inactive) and the GI50 (UACC-257) was > 100 µM (inactive). The GI50 (HCT-116) was 92.3 µM (inactive), the GI50 (SK-MEL-5) was > 100 µM (inactive) and the GI50 (OVCAR-4) was > 100 µM (inactive). The GI50 (HCT-15) was over 100 µM, the GI50 (NCI-H460) was > 100 µM (inactive) and the GI50 (SK-MEL-28) was > 100 µM (inactive). For the same molecule, the GI50 (BT-549) was > 100 µM (inactive), the GI50 (ACHN) was > 100 µM (inactive) and the GI50 (SF-268) was > 100 µM (inactive). For the same molecule, the GI50 (T47D) was 74.3 µM (inactive), the GI50 (UACC-62) was > 100 µM (inactive) and the GI50 (NCI-H226) was > 100 µM (inactive). The GI50 (SK-OV-3) was > 100 µM (inactive), the GI50 (NCI-H23) was > 100 µM (inactive) and the GI50 (EKVX) was > 100 µM (inactive). For the same molecule, the GI50 (OVCAR-5) was > 100 µM (inactive), the GI50 (SNB-19) was > 100 µM (inactive) and the GI50 (SK-MEL-2) was > 100 µM (inactive). The GI50 (Hs-578T) was > 100 µM (inactive), the GI50 (Malme-3M) was > 100 µM (inactive) and the GI50 (HT-29) was 78.3 µM (inactive). For the same molecule, the GI50 (UO-31) was > 100 µM (inactive), the GI50 (HOP-92) was 47.8 µM (inactive) and the GI50 (CAKI-1) was > 100 µM (inactive). For the same molecule, the GI50 (DU-145) was > 100 µM (inactive), the GI50 (SN12C) was > 100 µM (inactive) and the GI50 (OVCAR-3) was > 100 µM (inactive). For the same molecule, the GI50 (OVCAR-8) was > 100 µM (inactive).
